This passage reports IC50 results from US20220135591A1, “HETEROCYCLIC COMPOUNDS AS INHIBITORS OF MONOACYLGLYCEROL LIPASE (MAGL)” (Hoffmann-La Roche Inc., priority 2019, published 2022).

Molecules are shown by their SMILES.

Broadly, the IC50 is the point on the concentration scale where inhibition reaches its midpoint.

The assay deals with T1, MAGL (Homo sapiens, UniProt Q99685).
T1 sequence (Q99685 1-303): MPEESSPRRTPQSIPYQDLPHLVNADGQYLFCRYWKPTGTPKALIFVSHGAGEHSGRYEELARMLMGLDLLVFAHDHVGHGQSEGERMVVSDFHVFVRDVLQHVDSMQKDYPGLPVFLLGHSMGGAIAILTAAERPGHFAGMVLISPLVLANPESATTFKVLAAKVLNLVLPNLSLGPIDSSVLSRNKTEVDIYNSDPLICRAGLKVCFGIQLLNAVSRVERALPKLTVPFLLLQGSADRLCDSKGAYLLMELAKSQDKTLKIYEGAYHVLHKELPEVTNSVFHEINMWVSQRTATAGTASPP
Description: 2-AG assay: MAGL inhibitory activity by hydrolysis of 2-arachidonoylglycerol to arachidonic acid, mass spectrometry. Type of assay: biochemical. Particulars: 2-AG assay (values marked [b]). In outline: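 Hydrolysis of 8 μM 2-arachidonoylglycerol by […] was run for 30 min at RT after a 15 min compound preincubation, in Tris/EDTA/Tween buffer. Test compounds spanned […]. The product was measured by online SPE-MS/MS (transitions 303.1→259.1 and 311.1→267.0), and activity was derived from the arachidonic acid/d8-arachidonic acid signal ratio.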

With `Cc1cc(C(=O)N2CCN(c3nc4nc(Cl)ccc4o3)CC2)ccc1-c1nnc(C(C)(C)C)o1` [Example 83, [4-(5-tert-butyl-1,3,4-oxadiazol-2-yl)-3-methyl-phenyl]-[4-(5-chlorooxazolo[4,5-b]pyridin-2-yl)piperazin-1-yl]methanone], the IC50 is 11 nM. Next, `Cc1ccc2oc(N3CCN(C(=O)c4ccc(-c5nnn(CC(C)(C)C)n5)cc4)CC3)nc2n1` [Example 277, (4-(5-methyloxazolo[4,5-b]pyridin-2-yl)piperazin-1-yl)(4-(2-neopentyl-2H-tetrazol-5-yl)phenyl)methanone]: 9 nM; `CC(C)(C)n1cnc(-c2ccc(C(=O)N3CCN(c4nc5nc(Cl)ccc5o4)CC3)cc2Cl)n1` [Example 90, (4-(1-(tert-butyl)-1H-1,2,4-triazol-3-yl)-3-chlorophenyl)(4-(5-chlorooxazolo[4,5-b]pyridin-2-yl)piperazin-1-yl)methanone]: 16 nM. For `Cc1ccc2oc(N3CCN(C(=O)c4ccc(-c5cn(C(C)(C)C)nn5)cc4)CC3)nc2n1` [Example 87, (4-(1-(tert-butyl)-1H-1,2,3-triazol-4-yl)phenyl)(4-(5-methyloxazolo[4,5-b]pyridin-2-yl)piperazin-1-yl)methanone] the value was 151 nM; for `Cc1nc(C(=O)N2CCN(c3nc4nc(Cl)ccc4o3)CC2)cnc1OCC1(C(F)(F)F)CC1` [Example 137, [4-(5-chlorooxazolo[4,5-b]pyridin-2-yl)piperazin-1-yl]-[6-methyl-5-[[1-(trifluoromethyl)cyclopropyl]methoxy]pyrazin-2-yl]methanone], 34 nM; for `CC(C)(C)c1nc(-c2ccc(C(=O)N3CCN(c4nc5nc(Cl)ccc5o4)CC3)cc2C(F)(F)F)no1` [Example 81, [4-(5-tert-butyl-1,2,4-oxadiazol-3-yl)-3-(trifluoromethyl)phenyl]-[4-(5-chlorooxazolo[4,5-b]pyridin-2-yl)piperazin-1-yl]methanone], 9 nM. For `Cc1ccc2oc(N3CCN(C(=O)c4ccc(-c5nnc(C(C)(C)C)o5)c(Cl)c4)CC3)nc2n1` [Example 117, (4-(5-(tert-butyl)-1,3,4-oxadiazol-2-yl)-3-chlorophenyl)(4-(5-methyloxazolo[4,5-b]pyridin-2-yl)piperazin-1-yl)methanone], the IC50 turned out to be 34 nM. The compound `CC(C)(C)c1nnc(-c2ccc(C(=O)N3CCN(c4nc5nc(Cl)ccc5o4)CC3)cc2C(F)(F)F)o1` [Example 122, [4-(5-tert-butyl-1,3,4-oxadiazol-2-yl)-3-(trifluoromethyl)phenyl]-[4-(5-chlorooxazolo[4,5-b]pyridin-2-yl)piperazin-1-yl]methanone] registered an IC50 of 3 nM. For `Cc1cc(C(=O)N2CCN(c3nc4nc(Cl)ccc4o3)CC2)cnc1-c1cn(CC(C)(C)C)nn1` [Example 271, (4-(5-chlorooxazolo[4,5-b]pyridin-2-yl)piperazin-1-yl)(5-methyl-6-(1-neopentyl-1H-1,2,3-triazol-4-yl)pyridin-3-yl)methanone] the value was 74 nM; for `Cc1ccc2oc(N3CCN(C(=O)c4cnc(-c5cn(CC(C)(C)C)nn5)c(F)c4)CC3)nc2n1` [Example 244, (5-fluoro-6-(1-neopentyl-1H-1,2,3-triazol-4-yl)pyridin-3-yl)(4-(5-methyloxazolo[4,5-b]pyridin-2-yl)piperazin-1-yl)methanone], 50 nM; for `Cc1ccc2oc(N3CCN(C(=O)c4ccc(-c5cn(CC(C)(C)C)nn5)c(C#N)c4)CC3)nc2n1` [Example 235, 5-(4-(5-methyloxazolo[4,5-b]pyridin-2-yl)piperazine-1-carbonyl)-2-(1-neopentyl-1H-1,2,3-triazol-4-yl)benzonitrile], 104 nM.

In turn, `CC(C)(F)Cc1nnc(-c2ccc(C(=O)N3CCN(c4nc5nc(Cl)ccc5o4)CC3)cc2F)o1` [Example 298, [4-(5-chlorooxazolo[4,5-b]pyridin-2-yl)piperazin-1-yl]-[3-fluoro-4-[5-(2-fluoro-2-methyl-propyl)-1,3,4-oxadiazol-2-yl]phenyl]methanone] yielded an IC50 of 95 nM. This IC50 and that of the compound before are within 1.5-fold of each other. `Cc1cc(C(=O)N2CCN(c3nc4nc(Cl)ccc4o3)CC2)ccc1-c1cnn(CC(C)(C)C)n1` [Example 232, (4-(5-chlorooxazolo[4,5-b]pyridin-2-yl)piperazin-1-yl)(3-methyl-4-(2-neopentyl-2H-1,2,3-triazol-4-yl)phenyl)methanone] yielded an IC50 of 1 nM. For `CC(C)(C)Cn1cc(-c2ccc(C(=O)N3CCN(c4nc5nc(Cl)ccc5o4)C[C@H]3CO)cc2)nn1` (stereo in doubt) [Example 289, [(2S)-4-(5-chlorooxazolo[4,5-b]pyridin-2-yl)-2-(hydroxymethyl)piperazin-1-yl]-[4-[1-(2,2-dimethylpropyl)triazol-4-yl]phenyl]methanone] the value was 63 nM; for `COC1(COc2ncc(C(=O)N3CCN(c4nc5nc(Cl)ccc5o4)CC3)cc2C)CC1` [Example 171, (4-(5-chlorooxazolo[4,5-b]pyridin-2-yl)piperazin-1-yl)(6-((1-methoxycyclopropyl)methoxy)-5-methylpyridin-3-yl)methanone], 188 nM. Regarding `Cc1ccc2oc(N3CCN(C(=O)c4cnc(-c5nnn(CC(C)(C)C)n5)c(F)c4)CC3)nc2n1` [Example 307, [6-[2-(2,2-dimethylpropyl)tetrazol-5-yl]-5-fluoro-3-pyridyl]-[4-(5-methyloxazolo[4,5-b]pyridin-2-yl)piperazin-1-yl]methanone], the IC50 stood at 1130 nM. Next, `CC(C)(C)c1nnc(-c2ncc(C(=O)N3CCN(c4nc5nc(Cl)ccc5o4)CC3)cc2F)o1` [Example 278, [6-(5-tert-butyl-1,3,4-oxadiazol-2-yl)-5-fluoro-3-pyridyl]-[4-(5-chlorooxazolo[4,5-b]pyridin-2-yl)piperazin-1-yl]methanone]: 801 nM; `CC1(COc2ncc(C(=O)N3CCN(c4nc5nc(Cl)ccc5o4)CC3)cc2Cl)CC1` [Example 149, (5-chloro-6-((1-methylcyclopropyl)methoxy)pyridin-3-yl)(4-(5-chlorooxazolo[4,5-b]pyridin-2-yl)piperazin-1-yl)methanone]: 20 nM. For `CC(C)(C)Cn1ncc(-c2c(F)cc(C(=O)N3CCN(c4nc5nc(Cl)ccc5o4)CC3)cc2F)n1` [Example 91, (4-(5-chlorooxazolo[4,5-b]pyridin-2-yl)piperazin-1-yl)(3,5-difluoro-4-(2-neopentyl-2H-1,2,3-triazol-4-yl)phenyl)methanone] the value was 3 nM; for `COc1cc(C(=O)N2CCN(c3nc4nc(C)ccc4o3)CC2)ccc1-c1cnn(CC(C)(C)C)n1` [Example 240, (3-methoxy-4-(2-neopentyl-2H-1,2,3-triazol-4-yl)phenyl)(4-(5-methyloxazolo[4,5-b]pyridin-2-yl)piperazin-1-yl)methanone], 2 nM.

In turn, `Cc1ccc2oc(N3CCN(C(=O)N4CC(C(=O)Nc5ccc(F)cc5Cl)C4)CC3)nc2n1` [Example 256, N-(2-chloro-4-fluorophenyl)-1-[4-(5-methyl-[1,3]oxazolo[4,5-b]pyridin-2-yl)piperazine-1-carbonyl]azetidine-3-carboxamide] gave an IC50 of no less than 12500 nM.

Turning to `CC(C)(C)Cn1nnc(-c2c(F)cc(C(=O)N3CCN(c4nc5nc(Cl)ccc5o4)CC3)cc2F)n1` [Example 300, [4-(5-chlorooxazolo[4,5-b]pyridin-2-yl)piperazin-1-yl]-[4-[2-(2,2-dimethylpropyl)tetrazol-5-yl]-3,5-difluoro-phenyl]methanone], half-maximal inhibition (IC50) was put at 10 nM. In other words, the double-digit nanomolar range. As to `CC(C)(C)c1ncn(-c2ccc(C(=O)N3CCN(c4nc5nc(Cl)ccc5o4)CC3)cc2Cl)n1` [Example 292, [4-(3-tert-butyl-1,2,4-triazol-1-yl)-3-chloro-phenyl]-[4-(5-chlorooxazolo[4,5-b]pyridin-2-yl)piperazin-1-yl]methanone], the IC50 came to 75 nM. In the case of `O=C(Nc1ccc(F)cc1Cl)C1CN(C(=O)N2CCN(c3nc4nc(Cl)ccc4o3)CC2)C1` [Example 255, N-(2-chloro-4-fluorophenyl)-1-[4-(5-chloro-[1,3]oxazolo[4,5-b]pyridin-2-yl)piperazine-1-carbonyl]azetidine-3-carboxamide], the IC50 was no less than 12500 nM.

As for `Cc1ccc2oc(N3CCN(C(=O)c4ccc(-c5cn(CC6(C)COC6)nn5)cc4)CC3)nc2n1` [Example 100, (4-(5-methyloxazolo[4,5-b]pyridin-2-yl)piperazin-1-yl)(4-(1-((3-methyloxetan-3-yl)methyl)-1H-1,2,3-triazol-4-yl)phenyl)methanone], half-maximal inhibition (IC50) required 1080 nM.

As to `O=C(c1cnc(OCC2(C(F)(F)F)CC2)c(Cl)c1)N1CCN(c2nc3nc(Cl)ccc3o2)CC1` [Example 152, (5-chloro-6-((1-(trifluoromethyl)cyclopropyl)methoxy)pyridin-3-yl)(4-(5-chlorooxazolo[4,5-b]pyridin-2-yl)piperazin-1-yl)methanone], the IC50 was found to be 15 nM. For `Cc1cc(C(=O)N2CCN(c3nc4nc(Cl)ccc4o3)CC2)ccc1-n1cnc(C(C)(C)C)n1` [Example 287, [4-(3-tert-butyl-1,2,4-triazol-1-yl)-3-methyl-phenyl]-[4-(5-chlorooxazolo[4,5-b]pyridin-2-yl)piperazin-1-yl]methanone] the value was 114 nM; for `COc1cc(C(=O)N2CCN(c3nc4nc(Cl)ccc4o3)CC2)cnc1OCC1(C(F)(F)F)CC1` [Example 138, [4-(5-chlorooxazolo[4,5-b]pyridin-2-yl)piperazin-1-yl]-[5-methoxy-6-[[1-(trifluoromethyl)cyclopropyl]methoxy]-3-pyridyl]methanone], 183 nM.
